Molecules are shown by their SMILES.

One may read the inhibition as the percentage by which the read-out fell short of the control. A low value points to a response near the control. In general, Ki refers to the equilibrium dissociation constant of an inhibitor or competing ligand from its target.

T1 sequence (Q9H3N8 whole entry): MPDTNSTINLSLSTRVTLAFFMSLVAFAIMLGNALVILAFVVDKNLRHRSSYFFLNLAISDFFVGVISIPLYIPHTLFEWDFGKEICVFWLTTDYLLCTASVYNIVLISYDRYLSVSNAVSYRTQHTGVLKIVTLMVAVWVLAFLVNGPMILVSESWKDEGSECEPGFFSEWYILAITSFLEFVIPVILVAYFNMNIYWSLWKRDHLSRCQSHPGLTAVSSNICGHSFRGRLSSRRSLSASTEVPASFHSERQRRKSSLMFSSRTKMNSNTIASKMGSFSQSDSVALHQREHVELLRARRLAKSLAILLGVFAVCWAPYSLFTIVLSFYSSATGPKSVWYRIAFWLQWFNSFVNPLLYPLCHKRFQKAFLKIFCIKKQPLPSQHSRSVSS

The first experiment has as its target T1, histamine H4 receptor (Homo sapiens, UniProt Q9H3N8).
T1 construct: expressed in transfected cells; host or cells: CHO cells
In words: H4 binding, method 1 ([3H]-histamine filtration binding on CHO cell membranes). The settings on record: 1.5 h. An outline of the steps:
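Membranes from CHO cells expressing human H4 receptor (20-35 μg/well) incubated 90 min at room temperature with 3 nM [3H]-histamine in 50 mM Tris-HCl pH 7.4, ± competitor. Bound label separated by filtration on PEI-soaked GF/B filters and counted by scintillation; non-specific binding with 10 μM JNJ7777120.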
As for `CC(C)(C)CCNc1cc(N[C@H]2CCN(Cc3ccccc3)C2)ncn1` [Example 289, N-[(3S)-1-Benzylpyrrolidin-3-yl]-N′-(3,3-dimethylbutyl)pyrimidine-4,6-diamine], at 10 µM the inhibition was 44%.
`c1nc(NC[C@@H]2CCCO2)cc(N[C@H]2CCNC2)n1` [Example 290, N-[(3S)-Pyrrolidin-3-yl]-N′-[(2S)-tetrahydrofuran-2-ylmethyl]pyrimidine-4,6-diamine] returned an inhibition at 10 µM of 24%.
As for `CNC1CCCN(c2cc(NCC3CC3)nc(N)n2)C1` (stereo not drawn) [Example 294, N^4-(Cyclopropylmethyl)-6-[3-(methylamino)piperidin-1-yl]pyrimidine-2,4-diamine], the inhibition at 20 µM is 91%.
Compound `CC(C)(C)CNc1cc(N2C[C@H]3C[C@@]3(N)C2)ncn1` [Example 297, (1S,5R)-3-{6-[(2,2-Dimethylpropyl)amino]pyrimidin-4-yl}-3-azabicyclo[3.1.0]hexan-1-amine] had an inhibition at 10 µM of 30%.
Regarding `CCN(CC)C1CCN(c2cc(NCC(C)(C)C)ncn2)C1` (stereo not drawn) [Example 302, 6-[3-(Diethylamino)pyrrolidin-1-yl]-N-(2,2-dimethylpropyl)pyrimidin-4-amine], 10 µM produced 20% inhibition.
Same read-out and setting: the result for `CC(C)(C)CNc1cc(N2CCN(C3CNC3)CC2)ncn1` [Example 303, 6-(4-Azetidin-3-ylpiperazin-1-yl)-N-(2,2-dimethylpropyl)pyrimidin-4-amine] reads 38%; that for `CCN(CC)CCN(C)c1cc(NCC2CC2)ncn1` [Example 306, N′-(Cyclopropylmethyl)-N-[2-(diethylamino)ethyl]-N-methylpyrimidine-4,6-diamine], 18%.
Same read-out and setting: the result for `CC(C)(C)CCNc1cc(N2CCN(CCO)CC2)ncn1` [Example 307, 2-(4-{6-[(3,3-Dimethylbutyl)amino]pyrimidin-4-yl}piperazin-1-yl)ethanol] reads 24%.
`Nc1nc(NCc2cc(F)ccc2F)cc(N2CC[C@@H](N)C2)n1` [Example 311, 6-[(3R)-3-Aminopyrrolidin-1-yl]-N^4-(2,5-difluorobenzyl)pyrimidine-2,4-diamine]: 20 µM produced 80% inhibition.
The same measure, in the same setting: under `CC(C)(C)CCNc1cc(N2CC(N3CCOCC3)C2)ncn1` [Example 312, N-(3,3-Dimethylbutyl)-6-(3-morpholin-4-ylazetidin-1-yl)pyrimidin-4-amine] stands 21%; under `CCCNc1cc(N2CCN[C@H](C)C2)ncn1` [Example 313, 6-[(3R)-3-Methylpiperazin-1-yl]-N-propylpyrimidin-4-amine], 70%.
`CNc1cc(N2CCCC(NC)C2)nc(N)n1` (stereo not drawn) [Example 321, N^4-Methyl-6-[3-(methylamino)piperidin-1-yl]pyrimidine-2,4-diamine]: the inhibition at 20 µM turned out to be 15%.

Staying with this experiment, now noted: H4 binding, method 1; Ki calculated from IC50 (Cheng-Prussoff).
Consider `CNC1CCCN(c2cc(NCC(C)C)nc(N)n2)C1` (stereo not drawn) [Example 278, N^4-Isobutyl-6-[3-(methylamino)piperidin-1-yl]pyrimidine-2,4-diamine], for which the Ki was 1260 nM.
As to `CC(C)(C)CCNc1cc(N2CCCNCC2)ncn1` [Example 280, 6-(1,4-Diazepan-1-yl)-N-(3,3-dimethylbutyl)pyrimidin-4-amine], the Ki is 1430 nM.
Still for that read-out and setting: the result for `c1ccc(CNc2cc(N[C@H]3CCNC3)ncn2)cc1` [Example 281, N-Benzyl-N′-[(3S)-pyrrolidin-3-yl]pyrimidine-4,6-diamine] reads 1550 nM; that for `CN[C@@H]1CCN(c2cc(N3CCOCC3)nc(N)n2)C1` [Example 282, 4-[(3R)-3-(Methylamino)pyrrolidin-1-yl]-6-morpholin-4-ylpyrimidin-2-amine], 1660 nM.
For the compound `Nc1nc(NCC2CC2)cc(N2CCC(N)CC2)n1` [Example 283, 6-(4-Aminopiperidin-1-yl)-N^4-(cyclopropylmethyl)pyrimidine-2,4-diamine], the Ki is 1700 nM.
On the same count and under the same terms, under `CNc1cc(N2CCC(N)CC2)nc(N)n1` [Example 284, 6-(4-Aminopiperidin-1-yl)-N^4-methylpyrimidine-2,4-diamine] stands 1720 nM.
Same read-out and setting: under `c1nc(NCC2CC2)cc(N2CCNCC2)n1` [Example 285, N-(Cyclopropylmethyl)-6-piperazin-1-ylpyrimidin-4-amine] stands 1800 nM; under `CN[C@@H]1CCN(c2cc(NC(C)C)nc(N)n2)C1` [Example 286, N^4-lsopropyl-6-[(3R)-3-(methylamino)pyrrolidin-1-yl]pyrimidine-2,4-diamine], 1940 nM.
`CC(C)(C)CNc1cc(N2CC(N3CCOCC3)C2)nc(N)n1` [Example 287, N^4-(2,2-Dimethylpropyl)-6-(3-morpholin-4-ylazetidin-1-yl)pyrimidine-2,4-diamine]: the Ki was 2000 nM.
For the compound `CN1CCCC(Nc2cc(NCCC(C)(C)C)ncn2)C1` (stereo not drawn) [Example 288, N-(3,3-Dimethylbutyl)-N′-(1-methylpiperidin-3-yl)pyrimidine-4,6-diamine], the Ki was 2400 nM.
Still for that read-out and setting: the result for `CC(C)(C)CCNc1cc(N2CCC(N)C2)ncn1` (stereo not drawn) [Example 292, 6-(3-Aminopyrrolidin-1-yl)-N-(3,3-dimethylbutyl)pyrimidin-4-amine] reads 2590 nM; that for `CN1CCN(c2cc(N3CCOCC3)ncn2)CC1` [Example 293, 4-[6-(4-Methylpiperazin-1-yl)pyrimidin-4-yl]morpholine], 3040 nM.
Regarding `CNC1CN(c2cc(N3CCCCC3)nc(N)n2)C1` [Example 295, 4-[3-(Methylamino)azetidin-1-yl]-6-piperidin-1-ylpyrimidin-2-amine], the Ki is 3180 nM.
As to `CN1CC[C@H](Nc2cc(NCCC(C)(C)C)ncn2)C1` [Example 296, N-(3,3-Dimethylbutyl)-N′-[(3S)-1-methylpyrrolidin-3-yl]pyrimidine-4,6-diamine], the Ki is 3300 nM.
On the same count and under the same terms, under `c1ccc(CCNc2cc(N[C@H]3CCNC3)ncn2)cc1` [Example 315, N-(2-Phenylethyl)-N′-[(3S)-pyrrolidin-3-yl]pyrimidine-4,6-diamine] stands 5190 nM; under `c1nc(NC[C@H]2CCCO2)cc(N[C@H]2CCNC2)n1` [Example 319, N-[(3S)-Pyrrolidin-3-yl]-N′-[(2R)-tetrahydrofuran-2-ylmethyl]pyrimidine-4,6-diamine], 6010 nM.

The experiment is the same for the next values; noted with them: at 6.3 μM.
With `CNc1cc(N2CCC(C)(N)C2)nc(N)n1` (stereo not drawn) [Example 320, 6-(3-Amino-3-methylpyrrolidin-1-yl)-N^4-methylpyrimidine-2,4-diamine], the “Method 1, % at 6.3 μM” value amounted to 46% at 6.3 μM.

The same experiment, now with this note: at 10 μM.
As to `CN(C)C1[C@H]2CN(c3cc(NCCC(C)(C)C)ncn3)C[C@@H]12` (stereo partly drawn) [Example 300, (1R*,5S*,6s*)-3-{6-[(3,3-Dimethylbutyl)amino]pyrimidin-4-yl}-N,N-dimethyl-3-azabicyclo[3.1.0]hexan-6-amine], the “Method 1, % at 10 μM” value was determined as 35% at 10 μM.
Still for that read-out and setting: under `CN[C@H]1[C@@H]2CN(c3cc(NCCC(C)(C)C)nc(N)n3)C[C@@H]21` [Example 309, N^4-(3,3-Dimethylbutyl)-6-[(1R,5S,6s)-6-(methylamino)-3-azabicyclo[3.1.0]hex-3-yl]pyrimidine-2,4-diamine] stands 26% at 10 μM.

The same experiment, now with this note: top dose 6.3 μM.
With `CN[C@@H]1CCN(c2ncnc(NCC3CC3)c2C)C1` [Example 291, N-(Cyclopropylmethyl)-5-methyl-6-[(3R)-3-(methylamino)pyrrolidin-1-yl]pyrimidin-4-amine], the “Method 1, activity at top dose (6.3 μM)” value is recorded as “No activity at top”.

The experiment is the same for the next values; noted with them: top dose 10 μM.
In the case of `CNC1(C)CN(c2cc(NCCC(C)(C)C)nc(N)n2)C1` [Example 298, N^4-(3,3-Dimethylbutyl)-6-[3-methyl-3-(methylamino)azetidin-1-yl]pyrimidine-2,4-diamine], the “Method 1, activity at top dose (10 μM)” value is “No activity at top”.
For `Cn1ccnc1CN1CCN(c2cc(NCCC(C)(C)C)ncn2)CC1` [Example 299, N-(3,3-Dimethylbutyl)-6-{4-[(1-methyl-1H-imidazol-2-yl)methyl]piperazin-1-yl}pyrimidin-4-amine], the “Method 1, activity at top dose (10 μM)” value is “No activity at top”.
The same measure, in the same setting: the result for `CC(C)(C)CCNc1cc(N2CCC(N3CCCC3)CC2)ncn1` [Example 301, N-(3,3-Dimethylbutyl)-6-(4-pyrrolidin-1-ylpiperidin-1-yl)pyrimidin-4-amine] reads “No activity at top”; that for `c1nc(NCC2CC2)cc(N2CCN(C3CCCCC3)CC2)n1` [Example 305, 6-(4-Cyclohexylpiperazin-1-yl)-N-(cyclopropylmethyl)pyrimidin-4-amine], “No activity at top”.
As for `c1nc(NCC2CC2)cc(N2CCN(C3CNC3)CC2)n1` [Example 308, 6-(4-Azetidin-3-ylpiperazin-1-yl)-N-(cyclopropylmethyl)pyrimidin-4-amine], the “Method 1, activity at top dose (10 μM)” value is “No activity at top”.
Still for that read-out and setting: under `C[C@@H]1CN(c2cc(NCC3CC3)nc(N)n2)CCN1` [Example 310, N^4-(Cyclopropylmethyl)-6-[(3R)-3-methylpiperazin-1-yl]pyrim idine-2,4-diamine] stands “No activity at top”.
`c1nc(NC2CC2)cc(N2CCCNCC2)n1` [Example 314, N-Cyclopropyl-6-(1,4-diazepan-1-yl)pyrimidin-4-amine]: the “Method 1, activity at top dose (10 μM)” value is given as “No activity at top”.
In the case of `CNC1CN(c2cc(NCc3cc(F)cc(F)c3)nc(N)n2)C1` [Example 316, N^4-(3,5-Difluorobenzyl)-6-[3-(methylamino)azetidin-1-yl]pyrimidine-2,4-diamine], the “Method 1, activity at top dose (10 μM)” value is given as “No activity at top”.
The same measure, in the same setting: the result for `CNC1CN(c2cc(NCc3c(F)cccc3F)nc(N)n2)C1` [Example 317, N^4-(2,6-Difluorobenzyl)-6-[3-(methylamino)azetidin-1-yl]pyrimidine-2,4-diamine] reads “No activity at top”; that for `CC(C)(C)CNc1cc(N2C[C@H]3CCCN[C@H]3C2)nc(N)n1` [Example 318, N^4-(2,2-Dimethylpropyl)-6-[(4aR,7aR)-octahydro-6H-pyrrolo[3,4-b]pyridin-6-yl]pyrimidine-2,4diamine], “No activity at top”.

The record behind these values is patent publication US7943628B2, “Pyrimidine derivatives” (Pfizer Limited, priority 2005, dated 2011).
